Experimental data as given in patent US6458384B2, “Pharmaceutical with predetermined activity profile” (priority 2000, dated 2002).

Tests used:
[1] = Release According to USP (USP Paddle, 50 rpm), 0.1 N HCl then phosphate buffer pH 6.8; assay type: physicochemical; settings: 0.1 N HCl 0-120 min, phosphate buffer pH 6.8 >120 min, 37° C.
Procedure: The term “release profile” refers to the pattern of release of the respective pharmacologically active substance over time, that is, the amount released over time. This may be measured either in vivo, e.g. indirectly by measuring the blood concentration, or preferably ex vivo, e.g. by the USP paddle method that allows for determination of the dissolution rate of the substance. […] Samples are withdrawn for determination of the amount of substance released in intervals of e.g. 30 or 60 min an analysed, e.g. spectrophotometrically, for example at 272 nm for caffeine, and/or using HPLC methods. A preferred method is described in the examples that may be used in analogy for other pharmaceuticals according to the invention. Preferred methods for analyzing blood or plasma levels of compounds are also described in the examples—analogous methods can be used for different active substances and are known int the art or easily derivable from the art. Where not indicated otherwise, percentages or other relative indications of amounts are given on a weight by weight (w:w) basis. The dissolution rate determination using the USP paddle apparatus has already been described above. The attrition rate of tablet cores for subsequent film-coating is preferably determined under standard conditions in a friabilator. The rate of attrition, i.e. the friability, is calculated. […] The crushing strength of tablets is determined in a tablet hardness tester (N=10). [table] [table] [table]

[2] = USP paddle test in phosphate buffer pH 6.8 of ethylcellulose-coated caffeine tablets; assay type: physicochemical
Procedure: The term “release profile” refers to the pattern of release of the respective pharmacologically active substance over time, that is, the amount released over time. This may be measured either in vivo, e.g. indirectly by measuring the blood concentration, or preferably ex vivo, e.g. by the USP paddle method that allows for determination of the dissolution rate of the substance. For example, a USP paddle apparatus operating at 37° C. and 50 rpm ist used and the preparations are tested in (e.g. 900 ml) artificial intestinal fluid, e.g. phosphate buffer pH 6.8; artificial gastric juice, e.g. 0.1 N HCl; or water. Samples are withdrawn for determination of the amount of substance released in intervals of e.g. 30 or 60 min an analysed, e.g. spectrophotometrically, for example at 272 nm for caffeine, and/or using HPLC methods.

SMILES: Cn1c(=O)c2c(ncn2C)n(C)c1=O [Caffeine]
- Accumulated rel, Time (min) 15 ([1]; Example 1 sachet formulation, 15 min): 0.0%
- Accumulated rel, Time (min) 30 ([1]; Example 1 sachet formulation, 30 min): 0.0%
- Accumulated rel, Time (min) 60 ([1]; Example 1 sachet formulation, 60 min): 0.0%
- Accumulated rel, Time (min) 120 ([1]; Example 1 sachet formulation, 120 min): 0.0%
- Accumulated rel, Time (min) 180 ([1]; Example 1 sachet formulation, 180 min): 0.0%
- Accumulated rel, Time (min) 240 ([1]; Example 1 sachet formulation, 240 min): 0.0%
- Accumulated rel, Time (min) 300 ([1]; Example 1 sachet formulation, 300 min): 0.0%
- Accumulated rel, Time (min) 330 ([1]; Example 1 sachet formulation, 330 min): 87.0%
- Accumulated rel, Time (min) 360 ([1]; Example 1 sachet formulation, 360 min): 99.0%
- Accumulated rel, Time (min) 420 ([1]; Example 1 sachet formulation, 420 min): 99.5%
- Accumulated rel, Time (min) 15 ([1]; Example 2 tablet formulation, 15 min): 0.0%
- Accumulated rel, Time (min) 30 ([1]; Example 2 tablet formulation, 30 min): 0.0%
- Accumulated rel, Time (min) 60 ([1]; Example 2 tablet formulation, 60 min): 0.0%
- Accumulated rel, Time (min) 120 ([1]; Example 2 tablet formulation, 120 min): 0.0%
- Accumulated rel, Time (min) 180 ([1]; Example 2 tablet formulation, 180 min): 0.0%
- Accumulated rel, Time (min) 240 ([1]; Example 2 tablet formulation, 240 min): 0.0%
- Accumulated rel, Time (min) 300 ([1]; Example 2 tablet formulation, 300 min): 15.0%
- Accumulated rel, Time (min) 330 ([1]; Example 2 tablet formulation, 330 min): 89.3%
- Accumulated rel, Time (min) 360 ([1]; Example 2 tablet formulation, 360 min): 99.5%
- Accumulated rel, Time (min) 420 ([1]; Example 2 tablet formulation, 420 min): 99.7%
- Accumulated release, Time (min) 15 ([1]; Example 3 tablet formulation, 15 min): 0.0%
- Accumulated release, Time (min) 30 ([1]; Example 3 tablet formulation, 30 min): 0.0%
- Accumulated release, Time (min) 60 ([1]; Example 3 tablet formulation, 60 min): 0.0%
- Accumulated release, Time (min) 120 ([1]; Example 3 tablet formulation, 120 min): 0.0%
- Accumulated release, Time (min) 180 ([1]; Example 3 tablet formulation, 180 min): 0.0%
- Accumulated release, Time (min) 240 ([1]; Example 3 tablet formulation, 240 min): 0.0%
- Accumulated release, Time (min) 300 ([1]; Example 3 tablet formulation, 300 min): 5.3%
- Accumulated release, Time (min) 330 ([1]; Example 3 tablet formulation, 330 min): 85.6%
- Accumulated release, Time (min) 360 ([1]; Example 3 tablet formulation, 360 min): 99.0%
- Accumulated release, Time (min) 420 ([1]; Example 3 tablet formulation, 420 min): 99.2%
- time for releasing the complete amount of caffeine after release starts ([2]; Example 5 ethylcellulose-coated tablets, phosphate buffer pH 6.8, 5 out of six tested tablets): ≤ 2 h
- start of caffeine release after melatonin release ([2]; Example 5 test preparation: coated gelatine capsule with 6 caffeine tablets and 0.5 mg melatonin, stated from the properties of the tablets): approximately 420 min
